Test results published in patent publication US20040072811A1, “Use of antiprogestins for the induction of apoptosis in a cell” (priority 2000, published 2004).
“Also recorded” adds a separate entry of the source.

Key:
T47D cells = experiment: Antiproliferative activity in vitro in the T47D cell line (estradiol-stimulated, crystal violet); assay type: cell-based, human; details: 0.1 nM estradiol, 6 days
Method: T47D cells were grown in charcoal-treated serum supplemented with 0.1 nM E2 (estradiol) plus antiprogestin (I) for 6 days with one medium change. Following fixation and subsequent staining with crystal violet, the absorbance was recorded and values normalized to the absorbance of untreated controls as described in R. B. Lichtner, J. Steroid Biochem. Mol. Biol. 1999, 71; 181-189. The TUNEL assay is performed analogous to above Example 5 with the only difference that instead of tissue sections cells that are cultivated on microscopic slides are used for the assay.

[1] = system: NMU-induced mammary carcinoma of the rat; experiment: Tumor growth inhibition in NMU-induced breast cancer model in rat; assay type: in vivo, Sprague-Dawley rats; details: 5 mg/kg/day, 4 weeks
Method: Tumors were induced by a single intravenous injection of NMU (nitrosomethylurea, 50 mg/kg) in female Sprague-Dawley rats (obtained from Tierzucht Schönwalde, age 50-55 days). Starting 10 days later, rats with at least one established tumor were treated for 4 weeks by: 1) solvent control, 2) ovariectomy at treatment start, 3) antiprogestin (I), 1.0 mg/kg/day, 4) antiprogestin (1), 0.5 mg/kg/day and 5) onapristone, 5 mg/kg/day. As a parameter for growth inhibition the change of tumor area (in % of initial tumor size) determined by weekly caliper measurements was used. For statistical analysis of intergroup differences of mean values the Kruskal-Wallis-test was used.

[2] = system: DMBA-induced mammary carcinoma of the rat; experiment: Dose-response study in the DMBA-induced mammary tumor model; assay type: in vivo, Sprague-Dawley rats; details: 5 mg/kg s.c. daily, 4 weeks
Method: Immature female Sprague-Dawley rats (49-51 days old; 10 animals/group) were used in this study. Mammary tumors were induced by a single oral administration of 10 mg 7,12-dimethylbenz[a]anthracene (DMBA, Serva/Heidelberg). Rats with at least one established tumor with a size of more than 150 mm^2 were treated for 4 weeks by: 1) solvent control, 2) ovariectomy at treatment start, 3) antiprogestin (I), 0,5 mg/kg s.c., 4) antiprogestin (1), 2 mg/kg s.c., 5) antiprogestin (I), 5 mg/kg s.c., 6) antiprogestin (1), 10 mg/kg s.c., and 7) onapristone, 5 mg/kg, s.c., daily. As a parameter for growth inhibition the change of tumor area (in % with respect to initial tumor size) determined by weekly caliper measurements was used. For statistical analysis of intergroup differences of mean values the Kruskal-Wallis-test was used. For a further description and evaluation of the DMBA prevention model, see R. G. Metha, European Journal of Cancer 36 (2000), pp. 1275-1282.

SMILES	inhibition of estradiol-stimulated T47D cell growth (T47D cells)	tumor growth inhibiting effect relative to antiprogestin (I) at 0.5 mg/kg [1]	tumor growth inhibiting effect relative to antiprogestin (I) [2]
CN(CCCCC[C@@H]1Cc2cc(O)ccc2[C@@H]2[C@@H]1[C@@H]1CC[C@H](O)[C@@]1(C)C[C@@H]2F)CCCSCCCC(F)(F)C(F)(F)F [11β-fluoro-7α-{5-[N-methyl-N-3-(4,4,5,5,5-pentafluoropentylthio)-propylamino]-pentyl}-estra-1,3,5(10)-trien-3,17β-diol]	distinctly less effective than antiprogestin (I)	–	–
CN(C)c1ccc([C@H]2C[C@]3(C)[C@@H](CC[C@]3(O)CCCO)[C@@H]3CCC4=CC(=O)CCC4=C32)cc1 [onapristone, reference compound]	did not show any inhibiting effect; also recorded: no reducing effect on cell growth	distinctly less effective than antiprogestin (1)	distinctly less effective than antiprogestin (I)
